Laboratory results taken from article PMC9828493, “Design, Synthesis, and in Vitro Evaluation of 4‐(4‐Hydroxyphenyl)piperazine‐Based Compounds Targeting Tyrosinase” (Chemmedchem, 2022).

What was measured:
[1] = target: TYR from Agaricus bisporus (AbTYR) (Agaricus bisporus, UniProt C7FF04); assay: Inhibition of diphenolase activity of AbTYR (L-DOPA as substrate); settings: IC50 [μM]±SD, inhibition of diphenolase activity of AbTYR, L-DOPA substrate, three replicates;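 also: absorbance measured spectrophotometrically with L-DOPA as substrate, inhibition expressed as percent relative to control sample, IC50 interpolated from dose-response curves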
Sequence of TYR from Agaricus bisporus (AbTYR) (C7FF04 1-392 limits assumed): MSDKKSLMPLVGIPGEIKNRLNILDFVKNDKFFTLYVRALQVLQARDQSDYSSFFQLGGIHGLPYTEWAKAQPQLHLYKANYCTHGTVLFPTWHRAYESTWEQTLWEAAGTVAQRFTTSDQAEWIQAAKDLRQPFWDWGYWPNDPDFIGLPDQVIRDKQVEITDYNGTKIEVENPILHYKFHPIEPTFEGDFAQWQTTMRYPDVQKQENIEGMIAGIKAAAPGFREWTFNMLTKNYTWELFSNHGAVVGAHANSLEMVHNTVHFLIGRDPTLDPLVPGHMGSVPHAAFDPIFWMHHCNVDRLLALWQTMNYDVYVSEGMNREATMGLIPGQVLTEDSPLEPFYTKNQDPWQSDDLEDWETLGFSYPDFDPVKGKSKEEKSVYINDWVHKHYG
Experimental: Mushroom tyrosinase inhibition assay
absorbance was measured after 60 or 1 min of incubation time in the reaction mixture containing
L-tyrosine or L-DOPA, respectively. The inhibitory activity was expressed as inhibition percentage
respect to control sample.
calculated by interpolation of the dose-response curves. Kojic acid [5-hydroxy-2-(hydroxymethyl)-
4H-pyran-4-one], a fungal secondary metabolite used as skin whitening agent, was employed as a
positive standard (10–50 μM). A spectrophotometer (Agilent Cary 60 UV-Vis Spectrophotometer)
was used for absorbance measurements.
Kinetic analysis of the tyrosinase inhibition
The inhibition kinetics on the tyrosinase were studied using Lineweaver-Burk double reciprocal
plots. The reaction mixture consisted of four different concentrations of the substrate L-DOPA
(0.6–5 mM), and mushroom tyrosinase in phosphate buffer (0.05 M, pH 6.8). Three different
concentrations were used for the analysis. Preincubation and measurement time were the same
as discussed in mushroom tyrosinase inhibition assay. The Michaelis-Menten constant (Km) and
maximal velocity (Vmax) of tyrosinase were determined by Lineweaver-Burk plots.

Compound | IC50 [1] [µM] | melting point [°C]
O=C(c1ccccc1)N1CCN(c2ccc(O)cc2)CC1 [compound 2, (4‐(4‐Hydroxyphenyl)piperazin‐1‐yl)(phenyl)methanone] | 73.2 ± 3.5 | –
O=C(c1ccc(-c2ccccc2)cc1)N1CCN(c2ccc(O)cc2)CC1 [compound 3, (4‐(4‐Hydroxyphenyl)piperazin‐1‐yl)(biphenyl‐4‐yl)methanone] | 128 ± 4.1 | –
O=C(c1ccccc1F)N1CCN(c2ccc(O)cc2)CC1 [compound 4, (4‐(4‐Hydroxyphenyl)piperazin‐1‐yl)(2‐fluorophenyl)methanone] | 15.2 ± 0.9 | 142 to 143
O=C(c1cccc(F)c1)N1CCN(c2ccc(O)cc2)CC1 [compound 5, (4‐(4‐Hydroxyphenyl)piperazin‐1‐yl)(3‐fluorophenyl)methanone] | 22.6 ± 1.3 | 145 to 146
O=C(c1cccc(Cl)c1)N1CCN(c2ccc(O)cc2)CC1 [compound 8, (4‐(4‐Hydroxyphenyl)piperazin‐1‐yl)(3‐chlorophenyl)methanone] | 9 ± 1 | 138 to 139
O=C(c1ccc(Cl)cc1)N1CCN(c2ccc(O)cc2)CC1 [compound 9, (4‐(4‐Hydroxyphenyl)piperazin‐1‐yl)(4‐chlorophenyl)methanone] | 8.9 ± 0.9 | –
O=C(c1cccc(Br)c1)N1CCN(c2ccc(O)cc2)CC1 [compound 12, (4‐(4‐Hydroxyphenyl)piperazin‐1‐yl)(3‐bromophenyl)methanone] | 16.4 ± 1.9 | –
O=C(c1ccc(Br)cc1)N1CCN(c2ccc(O)cc2)CC1 [compound 13, (4‐(4‐Hydroxyphenyl)piperazin‐1‐yl)(4‐bromophenyl)methanone] | 39.6 ± 0.9 | 190 to 191
Cc1ccccc1C(=O)N1CCN(c2ccc(O)cc2)CC1 [compound 14, [4‐(4‐Hydroxyphenyl)piperazin‐1‐yl](2‐methylphenyl)methanone] | 29.9 ± 2 | 127 to 128
Cc1cccc(C(=O)N2CCN(c3ccc(O)cc3)CC2)c1 [compound 15, [4‐(4‐Hydroxyphenyl)piperazin‐1‐yl](3‐methylphenyl)methanone] | 31.7 ± 0.5 | 155 to 156
Cc1ccc(C(=O)N2CCN(c3ccc(O)cc3)CC2)cc1 [compound 16, [4‐(4‐Hydroxyphenyl)piperazin‐1‐yl](4‐methylphenyl)methanone] | 34.4 ± 0.5 | 162 to 163
O=C(c1cccc(C(F)(F)F)c1)N1CCN(c2ccc(O)cc2)CC1 [compound 18, (4‐(4‐Hydroxyphenyl)piperazin‐1‐yl)(3‐(trifluoromethyl)phenyl)methanone] | 5.5 ± 0.2 | 127 to 128
O=C(c1ccc(C(F)(F)F)cc1)N1CCN(c2ccc(O)cc2)CC1 [compound 19, (4‐(4‐Hydroxyphenyl)piperazin‐1‐yl)(4‐(trifluoromethyl)phenyl)methanone] | 35.1 ± 0.5 | 201 to 202
O=C(c1ccc(C(F)(F)F)cc1C(F)(F)F)N1CCN(c2ccc(O)cc2)CC1 [compound 20, (4‐(4‐Hydroxyphenyl)piperazin‐1‐yl)(2,4‐bis(trifluoromethyl)phenyl)methanone] | 18.2 ± 2.4 | 194 to 195
COc1cccc(C(=O)N2CCN(c3ccc(O)cc3)CC2)c1 [compound 22, [4‐(4‐Hydroxyphenyl)piperazin‐1‐yl](3‐methoxyphenyl)methanone] | 9.8 ± 0.4 | –
COc1ccc(C(=O)N2CCN(c3ccc(O)cc3)CC2)cc1 [compound 23, [4‐(4‐Hydroxyphenyl)piperazin‐1‐yl](4‐methoxyphenyl)methanone] | 14.9 ± 0.7 | 177 to 178
COc1ccc(C(=O)N2CCN(c3ccc(O)cc3)CC2)c(OC)c1 [compound 24, [4‐(4‐Hydroxyphenyl)piperazin‐1‐yl](2,4‐dimethoxyphenyl)methanone] | 16.7 ± 2 | –
O=C(c1ccc(F)cc1F)N1CCN(c2ccc(O)cc2)CC1 [compound 25, (4‐(4‐Hydroxyphenyl)piperazin‐1‐yl)(2,4‐difluorophenyl)methanone] | 17.5 ± 1.3 | 180 to 181
O=C(c1ccc(Br)cc1Br)N1CCN(c2ccc(O)cc2)CC1 [compound 26, (4‐(4‐Hydroxyphenyl)piperazin‐1‐yl)(2,4‐dibromophenyl)methanone] | 9.5 ± 0.3 | 176 to 177
Cc1ccc(C(=O)N2CCN(c3ccc(O)cc3)CC2)c(C)c1 [compound 27, [4‐(4‐Hydroxyphenyl)piperazin‐1‐yl](2,4‐dimethylphenyl)methanone] | 33.7 ± 0.7 | 164 to 165
O=C(c1ccccc1[N+](=O)[O-])N1CCN(c2ccc(O)cc2)CC1 [compound 28, (4‐(4‐hydroxyphenyl)piperazin‐1‐yl)(2‐nitrophenyl)methanone] | 7.4 ± 0.7 | 184 to 185
O=C(c1cccc([N+](=O)[O-])c1)N1CCN(c2ccc(O)cc2)CC1 [compound 29, (4‐(4‐Hydroxyphenyl)piperazin‐1‐yl)(3‐nitrophenyl)methanone] | 21.8 ± 1.2 | –
O=C(c1ccc([N+](=O)[O-])cc1)N1CCN(c2ccc(O)cc2)CC1 [compound 30, (4‐(4‐Hydroxyphenyl)piperazin‐1‐yl)(4‐nitrophenyl)methanone] | 23.2 ± 1.5 | 157 to 158
O=C(c1ccc([N+](=O)[O-])cc1[N+](=O)[O-])N1CCN(c2ccc(O)cc2)CC1 [compound 31, (4‐(4‐Hydroxyphenyl)piperazin‐1‐yl)(2,4‐dinitrophenyl)methanone] | 7.6 ± 0.05 | 225 to 226
Nc1ccccc1C(=O)N1CCN(c2ccc(O)cc2)CC1 [compound 32, (4‐(4‐Hydroxyphenyl)piperazin‐1‐yl)(2‐aminophenyl)methanone] | 66.4 ± 2.1 | –
Nc1cccc(C(=O)N2CCN(c3ccc(O)cc3)CC2)c1 [compound 33, (4‐(4‐Hydroxyphenyl)piperazin‐1‐yl)(3‐aminophenyl)methanone] | 35.7 ± 1.05 | 95 to 96
Nc1ccc(C(=O)N2CCN(c3ccc(O)cc3)CC2)cc1 [compound 34, (4‐(4‐Hydroxyphenyl)piperazin‐1‐yl)(4‐aminophenyl)methanone] | 43.9 ± 3.4 | 94 to 95
Nc1ccc(C(=O)N2CCN(c3ccc(O)cc3)CC2)c(N)c1 [compound 35, (4‐(4‐Hydroxyphenyl)piperazin‐1‐yl)(2,4‐diaminophenyl)methanone] | 82.4 ± 1.1 | 80 to 81
